We go through eleven molecules from ChEMBL document CHEMBL1201862, “PubChem BioAssay data set” (2004).

Test systems include SNB-19; Malme-3M; SF-268; MDA-N; KM12; SF-539; T47D; HT-29; OVCAR-8; A549; SF-295; BT-549; SK-MEL-28; OVCAR-3; M14; HCT-15; NCI-H226; SK-MEL-5; UACC-62.
What all share (test): DTP human tumour cell line panel, 48 h

SMILES strings stand for the structures.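 Five compound concentrations were applied to cells in 96-well plates for 48 hours; endpoints were derived by simple linear interpolation of the resulting dose-response curve. At the GI50, growth is halved.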 The source made the active and inactive calls. Cut-off read from the data, not from the text of the source: active = GI50 up to about 1.1 µM and inactive = higher.

For the molecule `Cc1ccc(C2(O)CS/C(=N\C34CC5CC(CC(C5)C3)C4)N2C(P(=O)(O)O)P(=O)(O)O)cc1` (configuration not stated), the GI50 is 82.2 µM (inactive) in the test with SNB-19; 63.7 µM (inactive) in the test on Malme-3M; > 100 µM (inactive) in the test with SF-268; 42 µM (inactive) in the test on MDA-N; > 100 µM (inactive) with KM12; > 100 µM (inactive) in the test with SF-539. Besides, the GI50 with T47D was 80.2 µM (inactive); in the test on HT-29, > 100 µM (inactive); in the test with OVCAR-8 it was 86.7 µM (inactive); in the test on A549 it was 76.7 µM (inactive); in the test with SF-295, 44.4 µM (inactive); with BT-549, > 100 µM (inactive). Besides, the GI50 in the test on SK-MEL-28 is > 100 µM (inactive); in the test with OVCAR-3 it was > 100 µM (inactive); in the test with M14, > 100 µM (inactive); in the test on HCT-15, over 100 µM; in the test on NCI-H226, > 100 µM (inactive).

For `O=C1CCN(CCC(F)(F)C(F)(F)C(F)(F)C(F)(F)C(F)(F)C(F)(F)F)C(=S)N1CCC(F)(F)C(F)(F)C(F)(F)C(F)(F)C(F)(F)C(F)(F)F`, the GI50 in the test with SK-MEL-5, in the test with SNB-19, with Malme-3M, in the test on SF-268, in the test on MDA-N and in the test on KM12 was > 100 µM (inactive) each time. The GI50 with SF-539, with T47D, with HT-29, in the test on OVCAR-8, in the test with UACC-62 and in the test on A549 was > 100 µM (inactive) in each case. Besides, the GI50 in the test with SF-295, in the test with BT-549, with SK-MEL-28, in the test on OVCAR-3, with M14 and in the test with NCI-H226 was > 100 µM (inactive) each time.

For the molecule `O=[N+]([O-])c1ccc2c(c1)C(N1CCN(CCO)CC1)Cc1ccc(F)cc1S2` (configuration not stated), the GI50 with SK-MEL-5 was 1.8 µM (inactive); in the test with SNB-19, 10.7 µM (inactive); with SF-268, 13.5 µM (inactive); in the test on MDA-N, 11 µM (inactive); with KM12, 6.64 µM (inactive); in the test on SF-539, 6.22 µM (inactive). The GI50 with T47D was 17.4 µM (inactive); with HT-29, 2.49 µM (inactive); with OVCAR-8 it was 11.3 µM (inactive); in the test with UACC-62, 2.49 µM (inactive); in the test with A549, 12.1 µM (inactive); with SF-295 it was 4.14 µM (inactive). For the same molecule, the GI50 in the test with BT-549 is 10.8 µM (inactive); in the test with SK-MEL-28, 1.96 µM (inactive); in the test on OVCAR-3, 16.4 µM (inactive); with M14, 3.15 µM (inactive); in the test on HCT-15, 5.93 µM; in the test with NCI-H226 it was 9.1 µM (inactive).

As to `CCN(CC)S(=O)(=O)c1ccc2[nH]c(NC(=O)OC)nc2c1`, the GI50 in the test with SK-MEL-5 is 98.9 µM (inactive); with SNB-19, 70.5 µM (inactive); in the test on Malme-3M, > 100 µM (inactive); in the test with SF-268, 99.3 µM (inactive); in the test on MDA-N, 18.5 µM (inactive); with KM12, 36.9 µM (inactive). Moreover, the GI50 in the test with SF-539 is 30 µM (inactive); in the test with T47D, 53.8 µM (inactive); in the test on HT-29, 40.9 µM (inactive); in the test on OVCAR-8, 45.1 µM (inactive); in the test with A549, 94.6 µM (inactive); with SF-295, 85.7 µM (inactive). Moreover, the GI50 in the test with BT-549 is > 100 µM (inactive); in the test on SK-MEL-28, 37.3 µM (inactive); with OVCAR-3 it was 80.9 µM (inactive); in the test with M14, 47.6 µM (inactive); in the test with HCT-15 it was 47.2 µM; in the test on NCI-H226 it was > 100 µM (inactive).

In the case of `CC1(C)Cc2c(cnn2-c2ccc(C(F)(F)F)cc2)-c2[nH]c(-c3ccc(O)cc3)nc21`, the GI50 was 16.9 µM (inactive) with SK-MEL-5; 16.6 µM (inactive) with SNB-19; 14.6 µM (inactive) with Malme-3M; 9.16 µM (inactive) in the test with SF-268; 14.6 µM (inactive) with MDA-N; 13 µM (inactive) with KM12. For the same molecule, the GI50 is 16.7 µM (inactive) in the test with T47D; 3.99 µM (inactive) in the test with HT-29; 20.8 µM (inactive) in the test on OVCAR-8; 16.2 µM (inactive) in the test on UACC-62; 12.7 µM (inactive) in the test on A549; 16 µM (inactive) with SF-295. The GI50 in the test on BT-549 is 12.8 µM (inactive); with SK-MEL-28 it was 13.7 µM (inactive); in the test on OVCAR-3, 13.9 µM (inactive); with M14, 14.9 µM (inactive); in the test with HCT-15 it was 11.1 µM; in the test on NCI-H226 it was 27.2 µM (inactive).

`CC1=NN(c2nc(N)nc(NS(=O)(=O)c3cc(C)c(Cl)cc3S)n2)C(C)(C)C1`: the GI50 in the test with SK-MEL-5, in the test on SNB-19, in the test with Malme-3M, with SF-268, with MDA-N and in the test with KM12 was > 10 µM (inactive) each time. Also, the GI50 in the test with SF-539, with T47D, with HT-29, in the test with OVCAR-8, in the test with A549 and in the test with SF-295 was > 10 µM (inactive) each time. Besides, the GI50 is > 10 µM (inactive) in the test on BT-549; > 10 µM (inactive) with SK-MEL-28; > 10 µM (inactive) with OVCAR-3; > 10 µM (inactive) in the test on M14; over 10 µM in the test with HCT-15; > 10 µM (inactive) in the test with NCI-H226.

In the case of `C=CC[C@H]1[C@H](O[Si](C)(C)C(C)(C)C)C=CC(=O)[C@@H]1CC(=O)N(Cc1ccccc1)Cc1ccccc1`, the GI50 in the test on SK-MEL-5 is 7.83 µM (inactive); in the test with SNB-19, 29.6 µM (inactive); in the test on SF-268 it was 6.55 µM (inactive); in the test with MDA-N, 16.4 µM (inactive); with KM12, 15.9 µM (inactive); with SF-539 it was 25.1 µM (inactive). For the same molecule, the GI50 was 3.3 µM (inactive) with T47D; 6.35 µM (inactive) in the test with HT-29; 16.1 µM (inactive) in the test with OVCAR-8; 13.5 µM (inactive) in the test on UACC-62; 20.5 µM (inactive) in the test with A549; 15.1 µM (inactive) with SF-295. Also, the GI50 in the test with BT-549 is 16.9 µM (inactive); in the test with SK-MEL-28, 49.5 µM (inactive); in the test with OVCAR-3 it was 15.1 µM (inactive); in the test on M14 it was 18.1 µM (inactive); in the test on HCT-15 it was 9.73 µM; in the test on NCI-H226, 11.7 µM (inactive).

Regarding `Cc1nc2ccc(Cl)cc2c2c1CCN2c1ccccc1`, the GI50 in the test with SK-MEL-5 is 7.53 µM (inactive); in the test with SNB-19 it was 23.5 µM (inactive); in the test with Malme-3M, 17.4 µM (inactive); in the test with SF-268, 23 µM (inactive); in the test on MDA-N, 1.5 µM (inactive); in the test on KM12 it was 17.5 µM (inactive). Moreover, the GI50 was 13.4 µM (inactive) with SF-539; 14.5 µM (inactive) with T47D; 7.18 µM (inactive) in the test on HT-29; 15 µM (inactive) in the test on OVCAR-8; 10.3 µM (inactive) with UACC-62; 15 µM (inactive) in the test on A549. For the same molecule, the GI50 is 5.47 µM (inactive) in the test with SF-295; 15.3 µM (inactive) with BT-549; 14 µM (inactive) in the test with SK-MEL-28; 10.3 µM (inactive) in the test with OVCAR-3; 17.3 µM in the test on HCT-15; 7.89 µM (inactive) with NCI-H226.

As to `CC(=O)Oc1ccc(C2SCc3nc4ccccc4n32)cc1` (configuration not stated), the GI50 was 24.7 µM (inactive) with SK-MEL-5; 50.6 µM (inactive) in the test with SNB-19; 30.2 µM (inactive) in the test on Malme-3M; 21 µM (inactive) in the test on SF-268; 14.8 µM (inactive) in the test with MDA-N; 15.3 µM (inactive) with KM12. Besides, the GI50 was 41 µM (inactive) in the test with SF-539; 18.3 µM (inactive) in the test with T47D; 23.3 µM (inactive) with HT-29; 18.7 µM (inactive) in the test with OVCAR-8; 29.7 µM (inactive) in the test on UACC-62; 32.2 µM (inactive) in the test on A549. Moreover, the GI50 was 21.7 µM (inactive) with SF-295; 6.4 µM (inactive) in the test on BT-549; 52.7 µM (inactive) in the test on SK-MEL-28; 24.4 µM (inactive) with OVCAR-3; 48.6 µM (inactive) with M14; 25.8 µM in the test with HCT-15.

For the molecule `O=C(O)C1C2C=CC(O2)C1C(=O)Nc1ccccc1` (configuration not stated), the GI50 in the test on SK-MEL-5, in the test on SNB-19, with Malme-3M, in the test with SF-268, with MDA-N and with KM12 was > 100 µM (inactive) throughout. Further, the GI50 in the test on T47D, in the test on HT-29, in the test on OVCAR-8, in the test with UACC-62, with A549 and with SF-295 was > 100 µM (inactive) in each case. Also, the GI50 in the test with BT-549 was > 100 µM (inactive); with SK-MEL-28 it was > 100 µM (inactive); with OVCAR-3 it was > 100 µM (inactive); in the test on M14, > 100 µM (inactive); with HCT-15, over 100 µM; in the test on NCI-H226 it was > 100 µM (inactive).

For the molecule `CCOc1cc(C2CC(c3ccc(NS(=O)(=O)c4cc([N+](=O)[O-])ccc4C)cc3)=NN2c2ccc([N+](=O)[O-])cc2[N+](=O)[O-])ccc1O` (configuration not stated), the GI50 in the test with SK-MEL-5 is 10.4 µM (inactive); in the test with SNB-19, 7.46 µM (inactive); with Malme-3M it was 8.57 µM (inactive); in the test with SF-268, 11.1 µM (inactive); in the test on MDA-N, 12.2 µM (inactive); in the test on KM12 it was 11 µM (inactive). The GI50 was 7.45 µM (inactive) with SF-539; 9.68 µM (inactive) in the test on T47D; 41.6 µM (inactive) with HT-29; 5.22 µM (inactive) in the test on OVCAR-8; 6.55 µM (inactive) in the test with A549; 12.1 µM (inactive) in the test with SF-295. For the same molecule, the GI50 in the test with BT-549 was 18 µM (inactive); with SK-MEL-28 it was 8 µM (inactive); in the test with OVCAR-3 it was 11.4 µM (inactive); in the test on M14, 12.3 µM (inactive); in the test with HCT-15, 19.3 µM; in the test on NCI-H226, 7.31 µM (inactive).
